The subject of one test is LoVo Colon cell line. Nature of the test: Cytotoxicity assay using LoVo colon cell line, SRB. The conditions noted are these: Homo sapiens, 96 h, read-out: Inhibition of LoVo. The format is cell-based. The procedure: Cytotoxicity Assay Using LoVo Colon Cell Line: • 1. LoVo Colon cell lines were cultured in RPMI 1640 medium (Gibco/Invitrogen Life Sciences) supplemented with 10% fetal bovine serum (FBS, Gibco) and 50 μg/ml entamicin (Gibco). Cells were maintained at 37° C. under 7% CO2. • 2. Cells were seeded in 96-well microtiter plates (Corning/Costar) in a volume of 0.15 ml of growth medium (4000 cells/well). Plates were incubated at 37° C. overnight (18-24 hours). • 3. Serial dilutions of the test agent were added to each well. Dilutions were prepared in growth medium. One of two dose ranges was used: 5 pM to 20 μM or 170 pg/ml to 10 μg/ml. Cells were incubated with the test compounds for 4 days at 37° C. • 4. Surviving cells were processed using the SRB asay, as described above.
5. The drug concentration that inhibits cell proliferation by 50% relative to untreated controls (IC50) was determined from cytotoxicity curves using the LSW Toolbox graphing application.

Test [1] concerns 80S14 (p21-deficient) cells. Nature of the test: Cytotoxicity assay using isogenic cell lines: IC50 in 80S14 (p21-deficient) cells, SRB. The format is cell-based, human. The conditions noted are these: Homo sapiens. In outline:
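IC50 is the concentration halving proliferation relative to untreated controls, read from SRB absorbance (560 nm) after TCA fixation. Test agent dilutions (5 pM–50 μM or 170 pg/ml–10 μg/ml) were left on p21-deficient 80S14 cells (12,000/well, pre-incubated overnight) for 5 days at 37 °C.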

Setting [2] is: LoVo colon cells, 4 days incubation, SRB.
Setting [3] is: 120 h, 80S14 p21-deficient cells, 5 days incubation, SRB, read-out: IC50 for 80SI4.
The mark [4] stands for this setting: Cellular activity in LoVo cell, 4 days incubation, SRB.
Where [5] appears, read: 120 h, 80S14 (p21-deficient) cells, 5 days, SRB, class symbols, read-out: IC50 for 80S14.

SMILES strings stand for the structures. Like-named read-outs stand apart in the source and are kept apart here. Where only a bound is given, the exact number is not on record here.

Regarding `O=C(Nc1cccc(-c2ccnc3c(C(=O)c4cccs4)cnn23)c1)OC1C=CCCC1` (centres unmarked) [Example 173, cyclohex-2-en-1-yl 3-[3-(thien-2-ylcarbonyl)pyrazolo[1,5-a]pyrimidin-7-yl]phenylcarbamate], the IC50 was less than 100 nM in the test with LoVo Colon cell line (setting [2]) and less than 1 µM in test [1] (setting [3]).
Turning to `O=C(Nc1cccc(-c2ccnc3c(C(=O)c4cccs4)cnn23)c1)OCC1CCC1` [Example 174, cyclobutylmethyl 3-[3-(thien-2-ylcarbonyl)pyrazolo[1,5-a]pyrimidin-7-yl]phenylcarbamate], the IC50 in the test with LoVo Colon cell line (setting [2]) was less than 100 nM; in test [1] (setting [3]), less than 1 µM.
In the same order, the values of `O=C(Nc1cccc(-c2ccnc3c(C(=O)c4cccs4)cnn23)c1)OCC1CCCCC1` [Example 175, cyclohexylmethyl 3-[3-(thien-2-ylcarbonyl)pyrazolo[1,5-a]pyrimidin-7-yl]phenylcarbamate] are less than 100 nM and less than 1 µM.
In the same order, the values of `O=C(Nc1cccc(-c2ccnc3c(C(=O)c4cccs4)cnn23)c1)OC1CCOCC1` [Example 176, tetrahydro-2H-pyran-4-yl 3-[3-(thien-2-ylcarbonyl)pyrazolo[1,5-a]pyrimidin-7-yl]phenylcarbamate] are less than 100 nM and less than 1 µM.
On the same counts, the results for `CC(C)=CCOC(=O)Nc1cccc(-c2ccnc3c(C(=O)c4cccs4)cnn23)c1` [Example 177, 3-methylbut-2-enyl 3-[3-(thien-2-ylcarbonyl)pyrazolo[1,5-a]pyrimidin-7-yl]phenylcarbamate] are less than 100 nM and 1 to 10 µM.
`CSCCOC(=O)Nc1cccc(-c2ccnc3c(C(=O)c4cccs4)cnn23)c1` [Example 178, 2-(methylthio)ethyl 3-[3-(thien-2-ylcarbonyl)pyrazolo[1,5-a]pyrimidin-7-yl]phenylcarbamate]: the IC50 with LoVo Colon cell line (setting [2]) was less than 100 nM; in test [1] (setting [3]) it was less than 1 µM.
With `CCCOC(=O)Nc1cccc(-c2cc(C)nc3c(C(=O)c4cccs4)cnn23)c1` [Example 194, propyl 3-[5-methyl-3-(thien-2-ylcarbonyl)pyrazolo[1,5-a]pyrimidin-7-yl]phenylcarbamate], the IC50 is less than 100 nM with LoVo Colon cell line (setting [2]) and less than 1 µM in test [1] (setting [3]).
In the same order, the values of `CCCCOC(=O)Nc1cccc(-c2cc(C)nc3c(C(=O)c4cccs4)cnn23)c1` [Example 195, butyl 3-[5-methyl-3-(thien-2-ylcarbonyl)pyrazolo[1,5-a]pyrimidin-7-yl]phenylcarbamate] are less than 100 nM and less than 1 µM.
On the same counts, the results for `C=CCOC(=O)Nc1cccc(-c2cc(C)nc3c(C(=O)c4cccs4)cnn23)c1` [Example 196, allyl 3-[5-methyl-3-(thien-2-ylcarbonyl)pyrazolo[1,5-a]pyrimidin-7-yl]phenylcarbamate] are 100 to 1000 nM and less than 1 µM.
With `Cc1cc(-c2cccc(NC(=O)OC(C)C)c2)n2ncc(C(=O)c3cccs3)c2n1` [Example 197, isopropyl 3-[5-methyl-3-(thien-2-ylcarbonyl)pyrazolo[1,5-a]pyrimidin-7-yl]phenylcarbamate], the values for the IC50 (in the test with LoVo Colon cell line (setting [2]); in test [1] (setting [3])) were less than 100 nM and less than 1 µM, respectively.
In the same order, the values of `Cc1cc(-c2cccc(NC(=O)OCCCl)c2)n2ncc(C(=O)c3cccs3)c2n1` [Example 198, 2-chloroethyl 3-[5-methyl-3-(thien-2-ylcarbonyl)pyrazolo[1,5-a]pyrimidin-7-yl]phenylcarbamate] are less than 100 nM and less than 1 µM.
In the same order, the values of `C=CCCOC(=O)Nc1cccc(-c2cc(C)nc3c(C(=O)c4cccs4)cnn23)c1` [Example 199, but-3-enyl 3-[5-methyl-3-(thien-2-ylcarbonyl)pyrazolo[1,5-a]pyrimidin-7-yl]phenylcarbamate] are less than 100 nM and less than 1 µM.
On the same counts, the results for `Cc1cc(-c2cccc(NC(=O)OCC(C)(C)C)c2)n2ncc(C(=O)c3cccs3)c2n1` [Example 200, neopentyl 3-[5-methyl-3-(thien-2-ylcarbonyl)pyrazolo[1,5-a]pyrimidin-7-yl]phenylcarbamate] are 100 to 1000 nM and less than 1 µM.
`Cc1cc(-c2cccc(NC(=O)CC(C)C)c2)n2ncc(C(=O)c3cccs3)c2n1` [Example 201, 3-methyl-N-{3-[5-methyl-3-(thien-2-ylcarbonyl)pyrazolo[1,5-a]pyrimidin-7-yl]phenyl}butanamide]: the results for the IC50 (in the test on LoVo Colon cell line (setting [2]); in test [1] (setting [3])) were less than 100 nM and less than 1 µM, respectively.
On the same counts, the results for `Cc1cc(-c2cccc(NC(=O)c3ccccc3)c2)n2ncc(C(=O)c3cccs3)c2n1` [Example 202, N-{3-[5-methyl-3-(thien-2-ylcarbonyl)pyrazolo[1,5-a]pyrimidin-7-yl]phenyl}benzamide] are 100 to 1000 nM and 10 to 50 µM.
On the same counts, the results for `Cc1cc(-c2cccc(NC(=O)C3CCCC3)c2)n2ncc(C(=O)c3cccs3)c2n1` [Example 204, N-{3-[5-methyl-3-(thien-2-ylcarbonyl)pyrazolo[1,5-a]pyrimidin-7-yl]phenyl}cyclopentanecarboxamide] are 100 to 1000 nM and less than 1 µM.
In the same order, the values of `Cc1cc(-c2cccc(NC(=O)Cc3cccs3)c2)n2ncc(C(=O)c3cccs3)c2n1` [Example 205, N-{3-[5-methyl-3-(thien-2-ylcarbonyl)pyrazolo[1,5-a]pyrimidin-7-yl]phenyl}-2-thien-2-ylacetamide] are 100 to 1000 nM and 1 to 10 µM.
Turning to `CCCCNC(=O)Nc1cccc(-c2cc(C)nc3c(C(=O)c4cccs4)cnn23)c1` [Example 206, N-butyl-N′-{3-[5-methyl-3-(thien-2-ylcarbonyl)pyrazolo[1,5-a]pyrimidin-7-yl]phenyl}urea], the IC50 in the test on LoVo Colon cell line (setting [2]) fell in the range of 100 to 1000 nM; in test [1] (setting [3]) it was 1 to 10 µM.
Regarding `Cc1cc(-c2cccc(NC(=O)NC(C)C)c2)n2ncc(C(=O)c3cccs3)c2n1` [Example 207, N-isopropyl-N′-{3-[5-methyl-3-(thien-2-ylcarbonyl)pyrazolo[1,5-a]pyrimidin-7-yl]phenyl}urea], the results for the IC50 (in the test on LoVo Colon cell line (setting [2]); in test [1] (setting [3])) were 100 to 1000 nM and less than 1 µM, respectively.
Consider `CCCOC(=O)Nc1cccc(-c2c(C)cnc3c(C(=O)c4cccs4)cnn23)c1` [Example 208, propyl 3-[6-methyl-3-(thien-2-ylcarbonyl)pyrazolo[1,5-a]pyrimidin-7-yl]phenylcarbamate], for which the IC50 in the test with LoVo Colon cell line (setting [2]) lay within 100 to 1000 nM; in test [1] (setting [3]) it was 10 to 50 µM.
Take `Cc1cnc2c(C(=O)c3cccs3)cnn2c1-c1cccc(NC(=O)OC(C)C)c1` [Example 211, isopropyl 3-[6-methyl-3-(thien-2-ylcarbonyl)pyrazolo[1,5-a]pyrimidin-7-yl]phenylcarbamate]: the IC50 with LoVo Colon cell line (setting [2]) is 1000 to 2000 nM; in test [1] (setting [3]), 10 to 50 µM.
`Cc1cnc2c(C(=O)c3cccs3)cnn2c1-c1cccc(NC(=O)OCC(C)(C)C)c1` [Example 214, neopentyl 3-[6-methyl-3-(thien-2-ylcarbonyl)pyrazolo[1,5-a]pyrimidin-7-yl]phenylcarbamate]: the values for the IC50 (with LoVo Colon cell line (setting [2]); in test [1] (setting [3])) were 1000 to 2000 nM and 10 to 50 µM, respectively.
As for `CCCNc1cccc(-c2ccnc3c(C(=O)c4cccs4)cnn23)c1` [Example 267, [7-[3-(Propylamino)phenyl]pyrazolo[1,5-a]pyrimidin-3-yl]-2-thienyl-methanone], the IC50 with LoVo Colon cell line (setting [4]) lay within 100 to 1000 nM; in test [1] (setting [5]), 1 to 10 µM.
Regarding `CC(C)C(=O)Nc1cccc(-c2ccnc3c(C(=O)c4cccs4)cnn23)c1` [Example 273, 2-Methyl-N-{3-[3-(2-thienylcarbonyl)pyrazolo[1,5-a]pyrimidin-7-yl]phenyl}propanamide], the IC50 in the test with LoVo Colon cell line (LoVo) is 100 to 1000 nM; in test [1] (80S14, 120 h, read-out: IC50 for 80S14 (uM)), less than 1 µM.
For the compound `CC#CC(=O)Nc1cccc(-c2ccnc3c(C(=O)c4cccs4)cnn23)c1` [Example 274, N-{3-[3-(2-Thienylcarbonyl)pyrazolo[1,5-a]pyrimidin-7-yl]phenyl}-2-butynamide], the figures for the IC50 (with LoVo Colon cell line (setting [4]); in test [1] (setting [5])) were less than 100 nM and less than 1 µM, respectively.
On the same counts, the results for `Cc1cc(-c2cccc(NC(=O)C3CC3)c2)n2ncc(C(=O)c3cccs3)c2n1` [Example 276, N-{3-[5-Methyl-3-(2-thienylcarbonyl)pyrazolo[1,5-a]pyrimidin-7-yl]phenyl}cyclopropanecarboxamide] are less than 100 nM and less than 1 µM.
`O=C(c1cccs1)c1cnn2c(-c3cccc(NC(=O)C4CCCCC4)c3)ccnc12` [Example 282, N-{3-[3-(2-Thienylcarbonyl)pyrazolo[1,5-a]pyrimidin-7-yl]phenyl}cyclohexanecarboxamide]: the IC50 in the test with LoVo Colon cell line (setting [4]) was 100 to 1000 nM; in test [1] (setting [5]) it was less than 1 µM.
On to `O=C(c1cccs1)c1cnn2c(-c3cccc(NC(=O)C4CCCC4)c3)ccnc12` [Example 283, N-{3-[3-(2-Thienylcarbonyl)pyrazolo[1,5-a]pyrimidin-7-yl]phenyl}cyclopentanecarboxamide], for which the IC50 in the test with LoVo Colon cell line (setting [4]) was less than 100 nM; in test [1] (setting [5]), less than 1 µM.

The record behind these values is patent publication US20060063784A1, “Method of using substituted pyrazolo [1,5-a] pyrimidines” (priority 2004, published 2006).
